Source: patent EP2495244A1, “Piperidinyl benzoimidazole derivatives as mPGEs-1 inhibitors” (NovaSaid AB, priority 2011, dated 2012)

Tests used:
human mPGEs-1 = molecular target: T1, human mPGEs-1 (Homo sapiens, UniProt O14684); test: Thiobarbituric acid assay (TBA-MDA assay, malondialdehyde assay) for inhibition of mPGEs-1
T1 sequence (O14684 1-152): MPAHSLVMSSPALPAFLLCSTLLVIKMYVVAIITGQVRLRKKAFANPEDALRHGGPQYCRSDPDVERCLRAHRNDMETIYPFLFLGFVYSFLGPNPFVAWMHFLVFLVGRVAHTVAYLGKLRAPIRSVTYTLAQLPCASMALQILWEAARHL

cellular PGE2 synthesis = test: A549 cell-assay (PGE2 content of supernatant by EIA); format: cell-based; conditions: Homo sapiens, A549 lung carcinoma cells, TNFalfa (5 ng/mL) and IL-1beta (5 ng/mL) 16 hours, 30 minutes with test compound, 10 µM arachidonic acid 30 minutes, arithmetic mean values
Description: Prostaglandin detection kits were purchased from Cayman Chemicals and used according to the instruction of the manufacturer.
A549 lung carcinoma cells, seeded at a density of 10, 000 cells/well, were grown in 96 well tissue culture plates. TNFalfa (5 ng/mL) and IL-1beta (5 ng/mL) were added and the cells were incubated for 16 hours. Cells were washed in PBS and test compounds at the appropriate concentration in HBSS/0.1% BSA were added. After 30 minutes of incubation with test compounds, 10 µM arachidonic acid was added and cells were further incubated for 30 minutes. Supernatant was collected and analyzed for PGE2 content by EIA according to manufacturer's instructions. Table 1. Inhibition of human mPGEs-1 and cellular PGE2 synthesis.

Row | Compound | IC50 (human mPGEs-1) [nM] | IC50 (cellular PGE2 synthesis) [nM]
1 | Cc1cc2nc(N3CCC(C(=O)N[C@@H]4CCOC4)CC3)n(-c3ccc4cc(Cl)ccc4n3)c2cc1C [Example 6, (R)-1-(1-(6-Chloroquinolin-2-yl)-5,6-dimethyl-1H-benzo[d]imidazol-2-yl)-N-(tetrahydrofuran-3-yl)piperidine-4-carboxamide] | 58 | 50
2 | O=C(N[C@@H]1CCOC1)C1CCN(c2nc3cc(Cl)c(Cl)cc3n2-c2ccccn2)CC1 [Example 16, (R)-1-(5,6-dichloro-1-(pyridin-2-yl)-1H-benzo[d]imidazol-2-yl)-N-(tetrahydrofuran-3-yl)piperidine-4-carboxamide] | 150 | 
3 | Cc1cc2nc(N3CCC(C(=O)N[C@@H]4CCOC4)CC3)n(-c3ccc4cc(Cl)ccc4n3)c2cc1Cl [Example 9, (R)-1-(6-Chloro-1-(6-chloroquinolin-2-yl)-5-methyl-1H-benzo[d]imidazol-2-yl)-N-(tetrahydrofuran-3-yl)piperidine-4-carboxamide] | 51 | 67
4 | O=C(N[C@@H]1CCOC1)C1CCN(c2nc3cc(Cl)c(Cl)cc3n2-c2ccc3cc(F)ccc3n2)CC1 [Example 10, (R)-1-(5,6-Dichloro-1-(6-fluoroquinolin-2-yl)-1H-benzo[d]imidazol-2-yl)-N-(tetrahydrofuran-3-yl)piperidine-4-carboxamide] | 42 | 61
5 | Cc1cc2nc(N3CCC(C(=O)N[C@@H]4CCOC4)CC3)n(-c3ccc4ccccc4n3)c2cc1Cl [Example 3, (R)-1-(6-Chloro-5-methyl-1-(quinolin-2-yl)-1H-benzo[d]imidazol-2-yl)-N (tetrahydrofuran-3-yl)piperidine-4-carboxamide] | 37 | 58
6 | Cc1cc2c(cc1Cl)nc(N1CCC(C(=O)N[C@@H]3CCOC3)CC1)n2-c1ccc2cc(F)ccc2n1 [Example 11, (R)-1-(5-Chloro-1-(6-fluoroquinolin-2-yl)-6-methyl-1H-benzo[d]imidazol-2-yl)-N-(tetrahydrofuran-3-yl)piperidine-4-carboxamide] | 47 | 16
7 | O=C(N[C@@H]1CCOC1)C1CCN(c2nc3cc(Cl)c(Cl)cc3n2-c2ccc3ccccc3n2)CC1 [Example 1, (R)-1-(5,6-Dichloro-1-(quinolin-2-yl)-1H-benzo[d]imidazol-2-yl)-N-(tetrahydrofuran-3-yl)piperidine-4-carboxamide] |  | 43
8 | O=C(N[C@@H]1CCOC1)C1CCN(c2nc3cc(Cl)c(Cl)cc3n2-c2ccc3cc(Cl)ccc3n2)CC1 [Example 4, (R)-1-(5,6-Dichloro-1-(6-chloroquinolin-2-yl)-1H-benzo[d]imidazol-2-yl)-N-(tetrahydrofuran-3-yl)piperidine-4-carboxamide] | 35 | 44
9 | Cc1cc2nc(N3CCC(C(=O)N[C@@H]4CCOC4)CC3)n(-c3ccc4ncccc4c3)c2cc1C [Example 15, (R)-1-(5,6-dimethyl-1-(quinolin-6-yl)-1H-benzo[d]imidazol-2-yl)-N-(tetrahydrofuran-3-yl)piperidine-4-carboxamide] | 65 | 66

Continued, values first:

Row | IC50 (human mPGEs-1) [nM] | IC50 (cellular PGE2 synthesis) [nM] | Compound
10 | 26 | 24 | Cc1cc2nc(N3CCC(C(=O)N[C@@H]4CCOC4)CC3)n(-c3ccc4cc(F)ccc4n3)c2cc1Cl [Example 12, (R)-1-(6-Chloro-1-(6-fluoroquinolin-2-yl)-5-methyl-1H-benzo[d]imidazol-2-yl)-N-(tetrahydrofuran-3-yl)piperidine-4-carboxamide]
11 | 34 | 4 | O=C(N[C@@H]1CCOC1)C1CCN(c2nc3cc(Cl)c(Cl)cc3n2-c2ccc3cccc(Cl)c3n2)CC1 [Example 5, (R)-1-(5,6-Dichloro-1-(8-chloroquinolin-2-yl)-1H-benzo[d]imidazol-2-yl)-N-(tetrahydrofuran-3-yl)piperidine-4-carboxamide]
12 | 31 | 40 | Cc1cc2c(cc1Cl)nc(N1CCC(C(=O)N[C@@H]3CCOC3)CC1)n2-c1ccc2cc(Cl)ccc2n1 [Example 8, (R)-1-(5-Chloro-1-(6-chloroquinolin-2-yl)-6-methyl-1H-benzo[d]imidazol-2-yl)-N-(tetrahydrofuran-3-yl)piperidine-4-carboxamide]
13 | 25 | 58 | Cc1cc2c(cc1Cl)nc(N1CCC(C(=O)N[C@@H]3CCOC3)CC1)n2-c1ccc2ccccc2n1 [Example 2, (R)-1-(5-Chloro-6-methyl-1-(quinolin-2-yl)-1H-benzo[d]imidazol-2-yl)-N-(tetrahydrofuran-3-yl)piperidine-4-carboxamide]
14 | 21 |  | O=C(N[C@@H]1CCOC1)C1CCN(c2nc3cc(Cl)c(Cl)cc3n2-c2cc3ccccc3cn2)CC1 [Example 14, (R)-1-(5,6-Dichloro-1-(isoquinolin-3-yl)-1H-benzo[d]imidazol-2-yl)-N-(tetrahydrofuran-3-yl)piperidine-4-carboxamide]
15 | 32 | 30 | Cc1cc(-n2c(N3CCC(C(=O)N[C@@H]4CCOC4)CC3)nc3cc(Cl)c(Cl)cc32)nc2ccccc12 [Example 7, (R)-1-(5,6-Dichloro-1-(4-methylquinolin-2-yl)-1H-benzo[d]imidazol-2-yl)-N-(tetrahydrofuran-3-yl)piperidine-4-carboxamide]
16 | 30 |  | O=C(N[C@@H]1CCOC1)C1CCN(c2nc3cc(Cl)c(Cl)cc3n2-c2ccc3cccc(F)c3n2)CC1 [Example 13, (R)-1-(5,6-Dichloro-1-(8-fluoroquinolin-2-yl)-1H-benzo[d]imidazol-2-yl)-N-(tetrahydrofuran-3-yl)piperidine-4-carboxamide]
